Bounds are passed on as bounds.

Our source for the IC50 values is patent US20250270200A1, “CTPS1 INHIBITORS AND USES THEREOF” (Nimbus Clotho, Inc., priority 2022, published 2025).

The first assay concerns the target T1, human CTPS1 (Homo sapiens, UniProt P17812).
T1 sequence (P17812 1-591): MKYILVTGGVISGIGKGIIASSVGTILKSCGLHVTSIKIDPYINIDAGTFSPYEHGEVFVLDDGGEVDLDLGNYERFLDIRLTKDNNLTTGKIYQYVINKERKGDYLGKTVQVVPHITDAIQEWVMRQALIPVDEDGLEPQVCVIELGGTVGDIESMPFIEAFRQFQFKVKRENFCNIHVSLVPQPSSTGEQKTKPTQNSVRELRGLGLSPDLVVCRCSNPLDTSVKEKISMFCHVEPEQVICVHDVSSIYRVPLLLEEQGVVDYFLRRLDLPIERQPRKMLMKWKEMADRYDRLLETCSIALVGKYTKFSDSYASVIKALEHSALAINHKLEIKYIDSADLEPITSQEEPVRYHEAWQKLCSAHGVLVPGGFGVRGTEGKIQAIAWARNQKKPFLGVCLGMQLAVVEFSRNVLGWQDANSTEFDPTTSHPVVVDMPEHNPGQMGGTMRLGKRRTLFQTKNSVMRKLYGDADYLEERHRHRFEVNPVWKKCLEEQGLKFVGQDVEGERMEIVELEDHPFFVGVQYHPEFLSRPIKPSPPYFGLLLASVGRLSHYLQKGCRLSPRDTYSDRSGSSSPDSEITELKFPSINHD
As to the kind of experiment: ADP-Glo assay, human CTPS1 enzyme inhibition. The assay is classed as biochemical. To be noted: wild-type human CTPS1 25 nM; ATP 120 μM, UTP 160 μM, GTP 60 μM, L-glutamine 100 μM; 25 degrees C.; read-out: ADP-Glo_WT_hCTPS1—25 nM_IC50 (IC50). As to the method: The enzyme inhibitory activities of the compounds of the invention against the target of interest were determined using the ADP-Glo™ assay (Promega). Assays for human CTPS1 and CTPS2 were performed in 1× assay buffer containing 50 mM HEPES (Life Technologies), 10 mM Mg2+, 5 mM KCl, 2 mM DTT, 0.01% F-127, pH to 7.4 accordingly. All reagents are from Sigma-Aldrich, unless specified otherwise. Purified human full length active N-terminal FLAG-8×HIS-TEV tagged CTPS1 (UniprotKB—P17812, […]-CTPS1[1-591]) was generated using a mammalian expression system at Viva Biotech (Shanghai) Ltd.
Purified human CTPS1 protein was prepared in 1× assay buffer to the final working protein concentration required for the reaction. A 2.5 μL volume per well of human CTPS 1 protein was mixed with 0.1 μL per well of test compound dissolved in DMSO and pre-incubated at 25 degrees C. for 10 minutes. 2.5 μL per well of the reaction precursors ATP (UltraPure ATP from ADP-Glo™ kit) and UTP were then added and pre-incubated for an additional 10 minutes at 25 degrees C. Finally, the reaction was initiated by the addition of 5 μL of the reaction precursors L-glutamine and GTP. The final concentration of all reaction components in the assay: ATP (120 μM), UTP (160 μM), GTP (60 μM), L-Glutamine (100 μM), DMSO (1%), hCTPS1 (25 nM). This mixture was incubated for an appropriate amount of time within the determined linear phase of the reaction at 25 degrees C. under sealed plate conditions with constant agitation at 500 revolutions per minute (rpm). ADP-Glo™ reagent was added for 60 minutes (10 μL per well) and subsequently ADP-Glo™ development reagent was added for 60 minutes (20 μL per well) prior to signal detection in a microplate reader (Envision Multilabel Reader, Perkin Elmer). Following each reagent addition over the course of the assay, assay plates were pulse centrifuged for 1 minute at 1000 rpm.
The enzyme converts ATP to ADP and the ADP-Glo™ reagent subsequently depletes any remaining ATP in the reaction system. The ADP-Glo™ detection reagents converts the ADP that has been produced by the enzyme back into ATP, which is then utilized as a substrate together with luciferin for the enzyme luciferase. Light generated by this chemiluminescent reaction is quantified and is directly proportional to the amount of ADP produced by the CTPS1 enzyme reaction. […]
On the technique in general: ADP-Glo turns the ADP formed in a reaction into a luminescent signal.
For the molecule `CCOc1cncc(-c2cnc(C(=O)N[C@H](COC)c3cc(NS(=O)(=O)C4CC4)ncn3)s2)n1` (single isomer, unassigned) [II-8], the half-maximal inhibitory concentration (IC50) (usually the concentration needed to halve the response being measured) fell in the range of 0.005 to 0.025 µM.

As to `O=C(N[C@@H](c1nccc(NS(=O)(=O)C2CC2)c1F)[C@H]1CCOC1)c1ncc(-c2cnn3ccc(Cl)cc23)s1` (single isomer, unassigned) [II-5], the IC50 lay in the range of 0.005 to 0.025 µM.

With `CCOc1cncc(-c2cnc(C(=O)N[C@H](c3nccc(NS(=O)(=O)C4CC4)c3F)[C@H]3CCOC3)s2)n1` (single isomer, unassigned) [II-17], the IC50 was in the range of 0.005 to 0.025 µM.

`CCOc1cncc(-c2cnc(C(=O)N[C@H](c3nccc(NS(=O)(=O)C4CC4)c3F)[C@@H]3CCOC3)s2)n1` (single isomer, unassigned) [II-18]: the IC50 was in the range of 0.005 to 0.025 µM.

Staying with this assay, now noted: wild-type human CTPS1, 25 nM enzyme; ADP-Glo; read-out: ADP-Glo_WT_hCTPS1—25 nM_IC50 (IC50).
Regarding `CCOc1cncc(-c2cnc(C(=O)N[C@H](CCN3CCCCC3)c3cccc(NS(=O)(=O)C(F)F)c3)s2)n1` [I-184, (R)-N-(1-(3-((difluoromethyl)sulfonamido)phenyl)-3-(piperidin-1-yl)propyl)-5-(6-ethoxypyrazin-2-yl)thiazole-2-carboxamide], the IC50 is 0.005 to 0.025 µM.

Take `CCOc1cncc(-c2cnc(C(=O)N[C@@H](CN3C[C@H]4C[C@@H]3CO4)c3cccc(NS(=O)(=O)C(F)F)c3)s2)n1` [I-204, N-((R)-2-((1R,4R)-2-oxa-5-azabicyclo[2.2.1]heptan-5-yl)-1-(3-((difluoromethyl)sulfonamido)phenyl)ethyl)-5-(6-ethoxypyrazin-2-yl)thiazole-2-carboxamide]: the IC50 is 0.005 to 0.025 µM.

With `CCOc1cncc(-c2cnc(C(=O)N[C@@H](CO)c3cc(NS(=O)(=O)C4CC4)ccn3)s2)n1` [I-262, (R)-N-(1-(4-(cyclopropanesulfonamido)pyridin-2-yl)-2-hydroxyethyl)-5-(6-ethoxypyrazin-2-yl)thiazole-2-carboxamide], the IC50 fell in the range of 0.025 to 0.05 µM.

Consider `CCOc1cncc(-c2cnc(C(=O)N[C@@H](C)c3cc(NS(=O)(=O)C4CC4)ccn3)s2)n1` [I-177, (S)-N-(1-(4-(cyclopropanesulfonamido)pyridin-2-yl)ethyl)-5-(6-ethoxypyrazin-2-yl)thiazole-2-carboxamide], for which the IC50 was in the range of 0.005 to 0.025 µM.

On to `CCOc1cncc(-c2cnc(C(=O)N[C@H](CCN3CCCC4(CC4)C3)c3cc(NS(=O)(=O)C4CC4)ccn3)s2)n1` (single isomer, unassigned) [I-17], for which the IC50 is at most 0.005 µM.

Consider `CCOc1cncc(-c2cnc(C(=O)N[C@H](c3cc(NS(=O)(=O)C4CC4)ncn3)[C@H]3CCOC3)s2)n1` [I-259, N-((S)-(6-(cyclopropanesulfonamido)pyrimidin-4-yl)((R)-tetrahydrofuran-3-yl)methyl)-5-(6-ethoxypyrazin-2-yl)thiazole-2-carboxamide], for which the IC50 is 0.005 to 0.025 µM.

In the case of `CCOc1cncc(-c2cnc(C(=O)N[C@@H](CN(C)C)c3cccc(NS(=O)(=O)C(F)F)c3)s2)n1` [I-212, (R)-N-(1-(3-((difluoromethyl)sulfonamido)phenyl)-2-(dimethylamino)ethyl)-5-(6-ethoxypyrazin-2-yl)thiazole-2-carboxamide], the IC50 was in the range of 0.025 to 0.05 µM.

Consider `CCOc1cncc(-c2cnc(C(=O)NC(CC(C)(C)N(C)C)c3cc(NS(=O)(=O)C4CC4)ccn3)s2)n1` (stereo not drawn) [I-48, N-(1-(4-(cyclopropanesulfonamido)pyridin-2-yl)-3-(dimethylamino)-3-methylbutyl)-5-(6-ethoxypyrazin-2-yl)thiazole-2-carboxamide], for which the IC50 is 0.005 to 0.025 µM.

With `CCOc1cncc(-c2cnc(C(=O)N[C@H](CN3CC[C@](C)(O)C3)c3cc(NS(=O)(=O)C4CC4)ccn3)s2)n1` [I-131, N-((R)-1-(4-(cyclopropanesulfonamido)pyridin-2-yl)-2-((S)-3-hydroxy-3-methylpyrrolidin-1-yl)ethyl)-5-(6-ethoxypyrazin-2-yl)thiazole-2-carboxamide], the IC50 fell in the range of 0.005 to 0.025 µM.

In the case of `CCOc1cncc(-c2cnc(C(=O)N[C@H](CN3C[C@H]4CC[C@@H]3CO4)c3cc(NS(=O)(=O)C4CC4)ccn3)s2)n1` [I-124, N-((R)-2-((1R,4R)-2-oxa-5-azabicyclo[2.2.2]octan-5-yl)-1-(4-(cyclopropanesulfonamido)pyridin-2-yl)ethyl)-5-(6-ethoxypyrazin-2-yl)thiazole-2-carboxamide], the IC50 lay within 0.025 to 0.05 µM.

Turning to `CCOc1cncc(-c2cnc(C(=O)N(C)[C@H](c3cc(NS(=O)(=O)C4CC4)ccn3)[C@@H]3CCOC3)s2)n1` [I-64, N-((S)-(4-(cyclopropanesulfonamido)pyridin-2-yl)((S)-tetrahydrofuran-3-yl)methyl)-5-(6-ethoxypyrazin-2-yl)-N-methylthiazole-2-carboxamide], the IC50 was 0.05 to 0.1 µM.

For `CCOc1cncc(-c2cnc(C(=O)N[C@H](COC)c3ccnc(NS(=O)(=O)C4CC4)n3)s2)n1` [I-268, (S)-N-(1-(2-(cyclopropanesulfonamido)pyrimidin-4-yl)-2-methoxyethyl)-5-(6-ethoxypyrazin-2-yl)thiazole-2-carboxamide], the IC50 lay within 0.025 to 0.05 µM.

Consider `CCOc1cncc(-c2cnc(C(=O)N[C@H](CCN(C)C3CCCCC3)c3cc(NS(=O)(=O)C4CC4)ccn3)s2)n1` (single isomer, unassigned) [I-14], for which the IC50 fell in the range of 0.005 to 0.025 µM.

Turning to `CCOc1cncc(-c2cnc(C(=O)N[C@H](Cn3ccccc3=O)c3cc(NS(=O)(=O)C4CC4)ccn3)s2)n1` [I-139, (R)-N-(1-(4-(cyclopropanesulfonamido)pyridin-2-yl)-2-(2-oxopyridin-1(2H)-yl)ethyl)-5-(6-ethoxypyrazin-2-yl)thiazole-2-carboxamide], the IC50 was in the range of 0.025 to 0.05 µM.

Take `CCOc1cncc(-c2cnc(C(=O)N[C@@H](c3cc(NS(=O)(=O)C4CC4)ccn3)[C@@H](C)CO)s2)n1` [I-226, N-((1R,2R)-1-(4-(cyclopropanesulfonamido)pyridin-2-yl)-3-hydroxy-2-methylpropyl)-5-(6-ethoxypyrazin-2-yl)thiazole-2-carboxamide]: the IC50 fell in the range of 0.005 to 0.025 µM.

As to `CCOc1cncc(-c2cnc(C(=O)N[C@@H](c3cc(NS(=O)(=O)C4CC4)ccn3)[C@H]3C[C@H]4CC[C@@H]3O4)s2)n1` [I-84, N-((R)-((1S,2R,4R)-7-oxabicyclo[2.2.1]heptan-2-yl)(4-(cyclopropanesulfonamido)pyridin-2-yl)methyl)-5-(6-ethoxypyrazin-2-yl)thiazole-2-carboxamide], the half-maximal inhibitory concentration (IC50) is at most 0.005 µM.

In the case of `O=C(N[C@@H](CCN1CCCCC1)c1cc(NS(=O)(=O)C2CC2)ccn1)c1ncc(-c2cnn3ccc(Cl)cc23)s1` (single isomer, unassigned) [I-9], the IC50 was over 0.1 µM.

`CCOc1cncc(-c2cnc(C(=O)N[C@H](c3cc(NS(=O)(=O)C4CC4)ccn3)[C@H](C)CO)s2)n1` [I-229, N-((1S,2S)-1-(4-(cyclopropanesulfonamido)pyridin-2-yl)-3-hydroxy-2-methylpropyl)-5-(6-ethoxypyrazin-2-yl)thiazole-2-carboxamide]: the IC50 was at most 0.005 µM.

For the molecule `CCOc1cncc(-c2cnc(C(=O)N[C@@H](C[C@H]3COCCN3C)c3cc(NS(=O)(=O)C4CC4)ccn3)s2)n1` [I-102, N-((S)-1-(4-(cyclopropanesulfonamido)pyridin-2-yl)-2-((S)-4-methylmorpholin-3-yl)ethyl)-5-(6-ethoxypyrazin-2-yl)thiazole-2-carboxamide], the IC50 was 0.05 to 0.1 µM.

Turning to `CCOc1cncc(-c2cnc(C(=O)N[C@H](COC)c3nccc(NS(=O)(=O)C4CC4)n3)s2)n1` [I-21, (S)-N-(1-(4-(cyclopropanesulfonamido)pyrimidin-2-yl)-2-methoxyethyl)-5-(6-ethoxypyrazin-2-yl)thiazole-2-carboxamide], the IC50 is 0.005 to 0.025 µM.
